# From patent publication US10131744B2, “Antimicrobial polyamide compositions and mastitis treatment” (priority 2013, dated 2018)
# Conditions: in vivo, iv
# Source text: The present invention thus provides novel and non-obvious antimicrobial polyamide compositions, and methods of using same for treating and preventing mastitis in non-human animals. The methods generally comprise administering to an infected animal an effective amount of the veterinary composition to eliminate or cure, completely or substantially, mastitis-causing pathogen(s).
substance,measurement,value
"poly (4,4′-trimethylene dipiperidine bispropanoic acid-co-1,3-diamino propane)",maximum tolerated dose,~40 mg/kg
